Reference: patent US9671405B2, “Identifying taxane sensitivity in prostate cancer patients” (Cornell University, priority 2012, dated 2017)

Tests used:
Assay type in all cases: cell-based, human
[1] = tested on: ARv7; assay: Nuclear localization of GFP-tagged ARv7 in M12 cells, confocal microscopy; details: 10 nM R1881 2 hr
Text: (§1) Cells were then fixed, immunostained for tubulin, and imaged for GFP-AR and tubulin by confocal microscopy. Androgen receptor is shown as lighter staining (green in the original), while tubulin staining is darker but visible as lighter areas in the images (red in the original). Representative, high-magnification images from each condition are shown. […] Scale bar: 10 μm. FIG. 9D is a bar graph depicting the ratio of cells with nuclear androgen receptor over those with cytoplasmic androgen receptor for each condition. […] Relative mRNA expression of TMPRSS2 and FKBP51 was assessed by qPCR. Values were corrected to GAPDH and normalized to untreated M12 cells expressing control lentivirus (M12 lenti). […] Androgen receptor protein expression was detected by staining with anti-androgen receptor or anti-ARN-21 antibodies. […] Cells were then fixed, immunostained for tubulin, and imaged for GFP-AR and tubulin by confocal microscopy. […]
(§2) In addition, M12 cells stably expressing GFP-tagged AR-wt, AR or variants were generated in Or Giannakakou's laboratory. GFP^+ cells from all three androgen receptor cell lines were sorted using fluorescence activated cell sorting (FACS) on a BD FACSAria II cell sorter (BD Biosciences, Franklin Lakes, N.J., USA) and subsequently expanded in media containing G418 ([…]). […]

[2] = tested on: ARv5,6,7; assay: Nuclear localization of GFP-tagged ARv5,6,7 in M12 cells, confocal microscopy; details: 10 nM R1881 2 h
Text: as §1, §2

[3] = tested on: leucocytes; assay: On-chip ex-vivo taxane treatment, microtubule bundling in leucocytes present on the chip; details: FIG. 5F patient (patient 4), 50 nM paclitaxel ex-vivo on-chip
Text: FIG. 5A-5F illustrates on-chip assessment of effective drug-target engagement in viable GEDI-captured circulating tumor cells, and that tubulin responses to taxane treatment can be assessed in GEDI-captured cells. […] One ml of spiked blood was then passed through each of three GEDI devices. […] Following drug treatment, cells were fixed and processed for immunofluorescence staining using antibodies against tubulin and CD45. DAPI was used as a DNA counterstain to evaluate nuclear integrity. […] Following drug treatment, the PSMA-captured cells were fixed and processed for immunofluorescence staining as in FIG. 5A with the addition of cytokeratin-18 as an alternative epithelial marker. […]
For ex-vivo drug treatment experiments, the blood sample from each patient was divided and 1 ml was flown to each of three GEDI devices simultaneously. […] All circulating tumor cells (PSMA^+/CD45−/DAPI^+) were assessed for the presence of microtubule bundles as evidence of effective drug-target engagement. The percent of circulating tumor cells with evidence of microtubule bundling was calculated. In all samples analyzed, bundling was clearly apparent by the distinct shape, width, orientation and increased fluorescence intensity of microtubule bundles as compared with microtubules from untreated cells. […]

[4] = tested on: GEDI-captured circulating tumor cells from castration-resistant prostate cancer patients; assay: On-chip ex-vivo taxane treatment of GEDI-captured patient circulating tumor cells, microtubule bundling as drug-target engagement
Text: One ml of spiked blood was then passed through each of three GEDI devices. […] Following drug treatment, cells were fixed and processed for immunofluorescence staining using antibodies against tubulin and CD45. DAPI was used as a DNA counterstain to evaluate nuclear integrity. […] Following drug treatment, the PSMA-captured cells were fixed and processed for immunofluorescence staining as in FIG. 5A with the addition of cytokeratin-18 as an alternative epithelial marker.
For ex-vivo drug treatment experiments, the blood sample from each patient was divided and 1 ml was flown to each of three GEDI devices simultaneously. […] At the end of treatment, the GEDI-captured cells were fixed with PHEMO buffer and processed for multiplex confocal microscopy following immunostaining with different cell surface and cytoplasmic antibodies as indicated. […] The percent of circulating tumor cells with evidence of microtubule bundling was calculated. […] In addition, DAPI counterstain was used to assess the presence of mitotic or apoptotic nuclei following drug treatment.
The GEDI-captured circulating tumor cells were tested in situ (i.e., while in the GEDI device) to evaluate their chemosensitivity to taxanes, and predict a patient's clinical response to therapy. […] Microtubule bundling is the first event induced by taxane treatment, resulting in downstream mitotic arrest and apoptotic cell death, and is therefore an appropriate marker of efficient taxane drug-target engagement.

Question: `C[C@]1(O)CC[C@H]2[C@@H]3CCC4=CC(=O)CCC4=C3C=C[C@@]21C` [R1881, Methyltrienolone] was tested. Which “nuclear accumulation of ARv7 induced by R1881” value [1] did it give?
Answer: The value was “does not increase nuclear accumulation”.

Question: And the “nuclear accumulation of ARv5,6,7 induced by R1881” value [2]?
Answer: The value was “did not induce any further nuclear accumulation”.

Question: For `CC(=O)O[C@H]1C(=O)[C@@]2(C)[C@H]([C@H](OC(=O)c3ccccc3)[C@]3(O)C[C@H](OC(=O)[C@H](O)[C@@H](NC(=O)c4ccccc4)c4ccccc4)C(C)=C1C3(C)C)[C@]1(OC(C)=O)CO[C@@H]1C[C@@H]2O` [paclitaxel], which “leucocytes present on the chip showing microtubule bundling” value [3] is on record?
Answer: The value was about 100%.

Question: And the “microtubule bundling of circulating tumor cells” value ([4]; patient 2, 100 nM or 1 uM paclitaxel ex-vivo on-chip)?
Answer: Its value is “display microtubule bundling”.

Question: What about the “response of circulating tumor cells to drug treatment” value ([4]; patient 4, 50 nM paclitaxel ex-vivo on-chip) of the same compound?
Answer: The value was “heterogeneous response”.

Question: What about the “apoptotic nuclei in circulating tumor cells” value ([4]; patient docetaxel progressor on cabazitaxel, ex vivo 24 hr) of the same compound?
Answer: The value was “exhibited apoptotic nuclei”.

Question: And the “effect on microtubule cytoskeleton of captured circulating tumor cells” value ([4]; patient of FIG. 5B (docetaxel progressor), 100 nM ex vivo, 24 hr)?
Answer: The value was “clear evidence of microtubule bundling”.

Question: And the “mitotic arrest of captured circulating tumor cells” value ([4]; same patient as FIG. 5B (FIG. 5C), ex vivo 24 hr)?
Answer: Its value is “signs of aberrant mitotic arrest”.
